According to patent publication US11045669B2, “Hydroalcoholic extract of Schinus molle, cosmetic compositions comprising the same and cosmetic uses thereof” (ISP INVESTMENTS LLC, priority 2015, dated 2021):

How the values were obtained:
[1] = tested on: Glyceraldehyde-3-phosphate dehydrogenase (GAPDH); settings: NHEK, 24 h, CaCl2 1.5 mM
Protocol: (§1) The potential effects of a hydroethanolic extract of Schinus molle obtained in accordance with Example 2 on skin hydration and barrier function were studied in a model of normal human epidermal keratinocytes (NHEKs) by analysing the expression profile of genes specific to the differentiation of keratinocytes and lipid synthesis by an RT-qPCR (reverse transcription quantitative polymerase chain reaction) method.
(§2) • Cell type: 3rd passage NHEKs • Culture conditions: 37° C., 5% CO2 • Culture medium: keratinocyte SFM (serum free medium) supplemented with • epidermal growth factor (EGF) 0.25 ng/ml • pituitary extract (PE) 25 μg/ml • gentamicin 25 μg/ml • Test medium: keratinocyte SFM supplemented with gentamicin 25 μg/ml Tested Compounds
(§3) The normal human epidermal keratinocytes (NHEKs) were seeded and cultivated in culture medium for 24 hours. […] All the conditions were performed with n=3.
(§4) The expression of the markers was assessed by RT-qPCR on the mRNAs (messenger RNAs) extracted from the cell layers of each treatment (the replicates were pooled before the RNA extraction).
(§5) The analysis of the expression of the genes was performed with n=2 with the aid of 2 “marker quantitative PCR arrays” containing 16 genes, including 2 housekeeping (HK) genes, dedicated to research and adapted to the screening format (mQPA-NHEK-BARRIER-16, product by BIOalternatives®).
(§6) The incorporation of fluorescence in the amplified DNA is measured continuously during the course of the PCR cycles. These measurements make it possible to obtain intensity curves of the fluorescence depending on the PCR cycles and to thus evaluate a value of relative expression (RE) for each marker. The number of cycles is determined on the basis of “exit” points of the fluorescence curves. For the same analysed marker, the later a sample exits (appeared late, after a number of increased cycles), the lower is the initial number of copies of the mRNA.
(§7) The RE (relative expression) value is expressed in arbitrary units (AU) in accordance with the following formula: (½^number of cycles)×10^6 […]

[2] = tested on: LAG1 homolog, ceramide synthase 6 (LASS6); experiment: RT-qPCR expression of LASS6 in NHEK; assay type: cell-based, human; settings: 24 h, CaCl2 1.5 mM
Protocol: as §1, §2, §3, §4, §5, §6, §7

[3] = tested on: Ribosomal protein S28 (RPS28); experiment: RT-qPCR expression of RPS28 (housekeeping) in NHEK; assay type: cell-based, human; settings: 24 h, CaCl2 1.5 mM
Protocol: as §1, §2, §3, §4, §5, §6, §7

[4] = tested on: Involucrin (IVL); experiment: RT-qPCR expression of IVL in NHEK; assay type: cell-based, human; settings: 24 h, CaCl2 1.5 mM
Protocol: (§8) The potential effects of a hydroethanolic extract of Schinus molle obtained in accordance with Example 2 on skin hydration and barrier function were studied in a model of normal human epidermal keratinocytes (NHEKs) by analysing the expression profile of genes specific to the differentiation of keratinocytes and lipid synthesis by an RT-qPCR (reverse transcription quantitative polymerase chain reaction) method. […]
as §4, §5
(§9) The incorporation of fluorescence in the amplified DNA is measured continuously during the course of the PCR cycles. These measurements make it possible to obtain intensity curves of the fluorescence depending on the PCR cycles and to thus evaluate a value of relative expression (RE) for each marker. The number of cycles is determined on the basis of “exit” points of the fluorescence curves. […]

[5] = tested on: UDP-glucose ceramide glucosyltransferase (UGCG); experiment: RT-qPCR expression of UGCG in NHEK; assay type: cell-based, human; settings: 24 h, CaCl2 1.5 mM
Protocol: as §1, §2, §3, §4, §5, §6, §7

[6] = tested on: Hyaluronan synthase 3 (HAS3); experiment: RT-qPCR expression of HAS3 in NHEK; assay type: cell-based, human; settings: 24 h, CaCl2 1.5 mM
Protocol: as §1, §2, §3, §4, §5, §6, §7

[7] = tested on: Claudin 1 (CLDN1); experiment: RT-qPCR expression of CLDN1 in NHEK; assay type: cell-based, human; settings: 24 h, CaCl2 1.5 mM
Protocol: as §1, §2, §3, §4, §5, §6, §7

[8] = tested on: Arachidonate 12-lipoxygenase (ALOX12); experiment: RT-qPCR expression of ALOX12 in NHEK; assay type: cell-based, human; settings: 24 h, CaCl2 1.5 mM
Protocol: as §8, §4, §5, §9

[9] = tested on: Serine palmitoyltransferase, long chain base subunit 1 (SPTLC1); experiment: RT-qPCR expression of SPTLC1 in NHEK; assay type: cell-based, human; settings: 24 h, CaCl2 1.5 mM
Protocol: as §1, §2, §3, §4, §5, §6, §7

[10] = tested on: Fatty acid synthase (FASN); experiment: RT-qPCR expression of FASN in NHEK; assay type: cell-based, human; settings: 24 h, CaCl2 1.5 mM
Protocol: as §1, §2, §3, §4, §5, §6, §7

[11] = tested on: Glucosidase, beta; acid (GBA); experiment: RT-qPCR expression of GBA in NHEK; assay type: cell-based, human; settings: 24 h, CaCl2 1.5 mM
Protocol: as §1, §2, §3, §4, §5, §6, §7

[12] = tested on: Aquaporin 3 (AQP3); experiment: RT-qPCR expression of AQP3 in NHEK; assay type: cell-based, human; settings: 24 h, CaCl2 1.5 mM
Protocol: as §1, §2, §3, §4, §5, §6, §7

[13] = tested on: Sphingomyelin phosphodiesterase 1, acid lysosomal (SMPD1); experiment: RT-qPCR expression of SMPD1 in NHEK; assay type: cell-based, human; settings: 24 h, CaCl2 1.5 mM
Protocol: as §1, §2, §3, §4, §5, §6, §7

[14] = tested on: Acyl-CoA synthetase short-chain family member 2 (ACSS2); experiment: RT-qPCR expression of ACSS2 in NHEK; assay type: cell-based, human; settings: 24 h, CaCl2 1.5 mM
Protocol: as §1, §2, §3, §4, §5, §6, §7

[15] = tested on: Transglutaminase 1 (TGM1); experiment: RT-qPCR expression of TGM1 in NHEK; assay type: cell-based, human; settings: 24 h, CaCl2 1.5 mM
Protocol: as §8, §4, §5, §9

[16] = tested on: Sulfotransferase family, cytosolic, 2B, member 1 (SULT2B1); experiment: RT-qPCR expression of SULT2B1 in NHEK; assay type: cell-based, human; settings: 24 h, CaCl2 1.5 mM
Protocol: as §8, §4, §5, §9

[17] = tested on: Filaggrin (FLG); experiment: RT-qPCR expression of FLG in NHEK; assay type: cell-based, human; settings: 24 h, CaCl2 1.5 mM
Protocol: as §8, §4, §5, §9

What does the source list for `[Ca+2].[Cl-].[Cl-]` [CaCl2, calcium chloride]?
GAPDH expression, % Control (GAPDH) [1]: 100 % Control; GAPDH expression, % Control (RPS28) [1]: 104 % Control; GAPDH expression, % Control (mean HK) [1]: 101 % Control; LASS6 expression, % Control (GAPDH) [2]: 103 % Control; LASS6 expression, % Control (RPS28) [2]: 107 % Control; LASS6 expression, % Control (mean HK) [2]: 104 % Control; RPS28 expression, % Control (GAPDH) [3]: 96 % Control; RPS28 expression, % Control (RPS28) [3]: 100 % Control; RPS28 expression, % Control (mean HK) [3]: 97 % Control; IVL expression, % Control (GAPDH) [4]: 175 % Control; IVL expression, % Control (RPS28) [4]: 183 % Control; UGCG expression, % Control (GAPDH) [5]: 118 % Control; UGCG expression, % Control (RPS28) [5]: 123 % Control; UGCG expression, % Control (mean HK) [5]: 119 % Control; HAS3 expression, % Control (GAPDH) [6]: 108 % Control; HAS3 expression, % Control (RPS28) [6]: 112 % Control; HAS3 expression, % Control (mean HK) [6]: 108 % Control; CLDN1 expression, % Control (GAPDH) [7]: 145 % Control; CLDN1 expression, % Control (RPS28) [7]: 152 % Control; CLDN1 expression, % Control (mean HK) [7]: 147 % Control; ALOX12 expression, % Control (GAPDH) [8]: 151 % Control; ALOX12 expression, % Control (RPS28) [8]: 158 % Control; SPTLC1 expression, % Control (GAPDH) [9]: 95 % Control; SPTLC1 expression, % Control (RPS28) [9]: 99 % Control; SPTLC1 expression, % Control (mean HK) [9]: 96 % Control; FASN expression, % Control (GAPDH) [10]: 105 % Control; FASN expression, % Control (RPS28) [10]: 109 % Control; FASN expression, % Control (mean HK) [10]: 106 % Control; GBA expression, % Control (GAPDH) [11]: 123 % Control; GBA expression, % Control (RPS28) [11]: 128 % Control; GBA expression, % Control (mean HK) [11]: 124 % Control; AQP3 expression, % Control (GAPDH) [12]: 110 % Control; AQP3 expression, % Control (RPS28) [12]: 115 % Control; AQP3 expression, % Control (mean HK) [12]: 111 % Control; SMPD1 expression, % Control (GAPDH) [13]: 108 % Control; SMPD1 expression, % Control (RPS28) [13]: 113 % Control; SMPD1 expression, % Control (mean HK) [13]: 109 % Control; ACSS2 expression, % Control (GAPDH) [14]: 127 % Control; ACSS2 expression, % Control (RPS28) [14]: 132 % Control; ACSS2 expression, % Control (mean HK) [14]: 128 % Control; TGM1 expression, % Control (GAPDH) [15]: 274 % Control; TGM1 expression, % Control (RPS28) [15]: 285 % Control; SULT2B1 expression, % Control (GAPDH) [16]: 244 % Control; SULT2B1 expression, % Control (RPS28) [16]: 254 % Control; FLG expression, % Control (GAPDH) [17]: 151 % Control; FLG expression, % Control (RPS28) [17]: 157 % Control
